In US20240262795A1, “PYRAZINE COMPOUNDS AS INHIBITORS OF FLT3” (Biomea Fusion, Inc., priority 2021, published 2024):

Legend:
Assay type in all cases: cell-based, human
MOLM-13 = assay: Proliferation inhibition, CellTiter-Glo, MOLM-13; settings: Homo sapiens, 96 h; MOLM-13 cells, IC50 (4 days), CellTiter-Glo; read-out: MOLM-13 IC50
Excerpt: (§1) The proliferation inhibitory effect was investigated in human AML cell lines MOLM-13 (AddexBio: C0003003) and MV-4-11 (ATCC: CRL-9591), and CML cell line […] (ATCC: CRL-3343). Molm-13 is heterozygous for FLT3-ITD mutation, while MV4-11 is homozygous for FLT3-ITD (Quentmeier H, et al., Leukemia. 17(1):120-4). […] Cells were maintained in RPMI-1640 medium (ThermoFisher catalog no. 61870036) supplemented with 10% of Heat Inactivated FBS (ThermoFisher catalog no. A31605) and 1% Pen-Strep (ThermoFisher catalog no. 10378016) and cultured at 37° C. in a humidified incubator with 5% CO2. Cell lines were grown by […], and the cells were maintained in a range 70%-80% confluency.
(§2) ATP is present in all metabolically active cells and is considered as a marker for cell viability and proliferation. Metabolic cell activity was determined using the CellTiter-Glo kit (Promega catalog no. G7572), an ATP monitoring system based on the production of luminescence by the reaction of ATP with added UltraGlo® recombinant luciferase (Kawano et al., 2016, PLOS One, 8; 11(7):e0158888), according to the supplier's experimental recommendations. The assay was based on a 96 well plate format.
(§3) Test compounds were dissolved at 10 mM in DMSO (Sigma catalog no. D8418; purity≥99.9%) and stored at −20° C. Eight concentrations of test compound were assessed in duplicate in an individual test occasion in parallel in the selected cell lines. Gilteratinib and FF-10101 were used as reference compounds and tested in duplicate at eight concentrations. 100% of proliferation is represented by the untreated cells (0.2% DMSO).
(§4) On the day of the experiment, cells were quantified with the cell viability analyzer NucleoCounter (Chemometec NC-200) and diluted with fresh medium to obtain the cell density of about 10,000 cells per 200 μL medium. 200 μL of cell suspension were added into wells in the 96 well plate.
(§5) After 2 hours from seeding cells, compounds at desired concentrations were added using a D300e compound dispenser (Life Sciences Tecan D300) with shaking between each compound dispensed. Assay plates were incubated at 37° C. in a humidified incubator with 5% CO2.
(§6) On day 4 (˜96 hrs after compound addition) assay plates were equilibrated at room temperature for approximately 15 min, and then 40 μL/well of the Promega CellTiterGlo® reagent was added. Contents were mixed for 5 min on an orbital shaker to promote cell lysis, and then incubated at room temperature for an additional 10 min in the dark to stabilize the luminescent signal. Luminescence was read by using a GloMlax GM300 plate reader (Promega) using the luminescence for 96 well plate standard protocol.
(§7) Results were analyzed by GraphPad (Prism) and IC50 values were calculated by non-linear regression using four parameter-logistic equation.

MV-4-11 = assay: Proliferation inhibition, CellTiter-Glo, MV-4-11; settings: Homo sapiens, MV4-11, 96 h; MV-4:11 cells, IC50 (4 days), CellTiter-Glo; read-out: MV-4:11 IC50
Excerpt: as §1, §2, §3, §4, §5, §6, §7

K-562 = assay: Proliferation inhibition, CellTiter-Glo, K-562; settings: Homo sapiens, K562, 96 h; K-562 cells, IC50 (4 days), CellTiter-Glo; read-out: K-562 IC50
Excerpt: as §1, §2, §3, §4, §5, §6, §7

SMILES | IC50 (MOLM-13) | IC50 (MV-4-11) | IC50 (K-562)
[2H]C([2H])([2H])N(C(=O)C=C)[C@@H](C)C(=O)NCCc1cccc(Nc2nc(C3CC3)c(CC)nc2C(N)=O)c1 [Compound 237, 5-cyclopropyl-6-ethyl-3-[3-[2-[[(2S)-2-[prop-2-enoyl(trideuteriomethyl)amino]propanoyl]amino]ethyl]anilino]pyrazine-2-carboxamide] | 10 to 100 nM | 1 to 10 nM | > 500 nM
C=CC(=O)N(C)[C@@H](C)C(=O)NCCc1cccc(Nc2nc(N(C)C(C)C)c(C)nc2C(N)=O)c1 [Compound 231, 5-[isopropyl(methyl)amino]-6-methyl-3-[3-[2-[[(2S)-2-[methyl(prop-2-enoyl)amino]propanoyl]amino]ethyl]anilino]pyrazine-2-carboxamide] | 10 to 100 nM | 1 to 10 nM | > 500 nM
[2H]C([2H])([2H])N(C/C=C/C(=O)N(C)[C@@H](C)C(=O)NCCc1cccc(Nc2nc(N(C)CC)c(CC)nc2C(N)=O)c1)C([2H])([2H])[2H] [Compound 246, (S,E)-3-((3-(2-(2-(4-(bis(methyl-d3)amino)-N-methylbut-2-enamido)propanamido)ethyl)phenyl)amino)-6-ethyl-5-(ethyl(methyl)amino)pyrazine-2-carboxamide] | < 1 nM | < 1 nM | > 500 nM
CCc1cc(C(N)=O)c(Nc2cccc(CCNC(=O)[C@H](C)N(C)C(=O)/C=C/CN(C)C)c2)nc1C1CC1 [Compound 316, 6-cyclopropyl-2-[3-[2-[[(2S)-2-[[(E)-4-(dimethylamino)but-2-enoyl]-methyl-amino]propanoyl]amino]ethyl]anilino]-5-ethyl-pyridine-3-carboxamide] | 100 to 500 nM | 10 to 100 nM | > 500 nM
C=CC(=O)N(C)CC(=O)NC[C@H](C)c1cccc(Nc2nc(CC(C)C)c(CC)nc2C(N)=O)c1 [Compound 512, (R)-6-ethyl-5-isobutyl-3-((3-(1-(2-(N-methylacrylamido)acetamido)propan-2-yl)phenyl)amino) pyrazine-2-carboxamide] | > 500 nM | 10 to 100 nM | > 500 nM
CC#CC(=O)N(C)[C@@H](C)C(=O)NCCc1cccc(Nc2nc(N(C)C)c(CC)nc2C(N)=O)c1 [Compound 160, 3-[3-[2-[[(2S)-2-[but-2-ynoyl(methyl)amino]propanoyl]amino]ethyl]anilino]-5-(dimethylamino)-6-ethyl-pyrazine-2-carboxamide] | 10 to 100 nM | 1 to 10 nM | > 500 nM
Cc1cc(C(N)=O)c(Nc2cncc(CCNC(=O)[C@H](C)N(C)C(=O)/C=C/CN(C)C)c2)nc1C1CC1 [Compound 323, (S,E)-6-cyclopropyl-2-((5-(2-(2-(4-(dimethylamino)-N-methylbut-2 enamido)propanamido)ethyl)pyridin-3-yl)amino)-5-methylnicotinamide] | 100 to 500 nM | 10 to 100 nM | –
CCc1cc(C(N)=O)c(Nc2cncc(CCNC(=O)[C@H](C)N(C)C(=O)/C=C/CN(C)C)c2)nc1C1CC1 [Compound 320, 6-cyclopropyl-2-[[5-[2-[[(2S)-2-[[(E)-4-(dimethylamino)but-2-enoyl]-methyl-amino]propanoyl]amino]ethyl]-3-pyridyl]amino]-5-ethyl-pyridine-3-carboxamide] | 100 to 500 nM | 10 to 100 nM | > 500 nM
CCc1nc(C(N)=O)c(Nc2cccc(CCNC(=O)[C@H](C)N(C)C(=O)/C=C/CNC)c2)nc1C1CC1 [Compound 224, (S,E)-5-cyclopropyl-6-ethyl-3-((3-(2-(2-(N-methyl-4-(methylamino)but-2-enamido)propanamido)ethyl)phenyl)amino)pyrazine-2-carboxamide] | 1 to 10 nM | < 1 nM | > 500 nM
CC#CC(=O)N(C)[C@@H](C)C(=O)NCCc1cccc(Nc2nc(N(C)C)c(C)nc2C(N)=O)c1 [Compound 217, 3-[3-[2-[[(2S)-2-[but-2-ynoyl(methyl)amino]propanoyl]amino]ethyl]anilino]-5-(dimethylamino)-6-methyl-pyrazine-2-carboxamide] | 10 to 100 nM | 10 to 100 nM | > 500 nM
[2H]C([2H])([2H])N(C/C=C/C(=O)N(C)[C@@H](C)C(=O)NCCc1cccc(Nc2nc(NC(C)C)c(CC)nc2C(N)=O)c1)C([2H])([2H])[2H] [Compound 505, (S,E)-3-((3-(2-(2-(4-(bis(methyl-d3)amino)-N-methylbut-2-enamido)propanamido)ethyl)phenyl)amino)-6-ethyl-5-(isopropylamino)pyrazine-2-carboxamide] | – | – | > 500 nM

Second part, the compound after the results:

IC50 (MOLM-13) | IC50 (MV-4-11) | IC50 (K-562) | SMILES
10 to 100 nM | 1 to 10 nM | > 500 nM | C=CC(=O)N(C)[C@@H](C)C(=O)NCCc1cccc(Nc2nc(N(C)CC)c(C)nc2C(N)=O)c1 [Compound 225, 5-[ethyl(methyl)amino]-6-methyl-3-[3-[2-[[(2S)-2-[methyl(prop-2-enoyl)amino]propanoyl]amino]ethyl]anilino]pyrazine-2-carboxamide]
10 to 100 nM | 10 to 100 nM | > 500 nM | Cc1cc(C(N)=O)c(Nc2cccc(CCNC(=O)[C@H](C)N(C)C(=O)/C=C/CN(C)C)c2)nc1C1CC1 [Compound 319, 6-cyclopropyl-2-[3-[2-[[(2S)-2-[[(E)-4-(dimethylamino)but-2-enoyl]-methyl-amino]propanoyl]amino]ethyl]anilino]-5-methyl-pyridine-3-carboxamide]
10 to 100 nM | 1 to 10 nM | > 500 nM | CCc1nc(C(N)=O)c(Nc2cccc(CCNC(=O)C3(N(C)C(=O)/C=C/CN(C)C)CC3)c2)nc1C1CC1 [Compound 220, 5-cyclopropyl-3-[3-[2-[[1-[[(E)-4-(dimethylamino)but-2-enoyl]-methyl-amino]cyclopropanecarbonyl]amino]ethyl]anilino]-6-ethyl-pyrazine-2-carboxamide]
10 to 100 nM | 1 to 10 nM | > 500 nM | CCc1nc(C(N)=O)c(Nc2cccc(C[C@H](C)NC(=O)[C@H](C)N(C)C(=O)/C=C/CN(C)C)c2)nc1C [Compound 317, 3-[3-[(2S)-2-[[(2S)-2-[[(E)-4-(dimethylamino)but-2-enoyl]-methyl-amino]propanoyl]amino]propyl]anilino]-6-ethyl-5-methyl-pyrazine-2-carboxamide]
10 to 100 nM | 10 to 100 nM | > 500 nM | Cc1nc(Nc2cccc(CCNC(=O)CN(C)C(=O)/C=C/CN(C)C)c2)c(C(N)=O)nc1C [Compound 301, 3-[3-[2-[[2-[[(E)-4-(dimethylamino)but-2-enoyl]-methyl-amino]acetyl]amino]ethyl]anilino]-5,6-dimethyl-pyrazine-2-carboxamide]
10 to 100 nM | 1 to 10 nM | > 500 nM | C=CC(=O)N(C)[C@@H](C)C(=O)NCCc1cccc(Nc2nc(N(C)C)c(C)nc2C(N)=O)c1 [Compound 218, 5-(dimethylamino)-6-methyl-3-[3-[2-[[(2S)-2-[methyl(prop-2-enoyl)amino]propanoyl]amino]ethyl]anilino]pyrazine-2-carboxamide]
1 to 10 nM | < 1 nM | > 500 nM | CCc1nc(C(N)=O)c(Nc2cccc(CCNC(=O)CN(C)C(=O)/C=C/CN(C)C)c2)nc1C [Compound 226, (E)-3-((3-(2-(2-(4-(dimethylamino)-N-methylbut-2-enamido)acetamido)ethyl)phenyl)amino)-6-ethyl-5-methylpyrazine-2-carboxamide]
10 to 100 nM | 10 to 100 nM | > 500 nM | Cc1nc(Nc2cccc(CCNC(=O)[C@H](C)N(C)C(=O)/C=C/CN(C)C)c2)c(C(N)=O)nc1C [Compound 207, 3-[3-[2-[[(2S)-2-[[(E)-4-(dimethylamino)but-2-enoyl]-methyl-amino]propanoyl]amino]ethyl]anilino]-5,6-dimethyl-pyrazine-2-carboxamide]
